Measured values published in the supplement of paper PMC6965134.

Assay: TIMS collisional cross section (CCS, N2) of the lipid ion; higher = larger ion cross section
Conditions: ionization mode: positive, one isomer drawn

| TIMS collisional cross section (sample type: Liver) | TIMS collisional cross section (sample type: plasma) | TIMS collisional cross section (sample type: HeLa) | SMILES |
| --- | --- | --- | --- |
| 322.3 Å² | – | – | CCCCC/C=C\C/C=C\C/C=C\CCCCCCC(=O)OC[C@@H](COC(=O)CCCCCCCCCCCCCCC)OC(=O)CCCCCCC/C=C\C/C=C\CCCCC [TG 16:0_18:2_20:3] (ion (formula + adduct): [C57H100O6+NH4] 1+) |
| – | 321.2 Å² | – | CCCCC/C=C\C/C=C\C/C=C\C/C=C\CCCC(=O)OC[C@@H](COC(=O)CCCCCCCCCCCCCCC)OC(=O)CCCCCCC/C=C\C/C=C\CCCCC [TG 16:0_18:2_20:4] (ion (formula + adduct): [C57H98O6+NH4] 1+) |
| 318.1 Å² | 319.9 Å² | – | CC/C=C\C/C=C\C/C=C\C/C=C\C/C=C\CCCC(=O)OC[C@@H](COC(=O)CCCCCCCCCCCCCCC)OC(=O)CCCCCCC/C=C\C/C=C\CCCCC [TG 16:0_18:2_20:5] (ion (formula + adduct): [C57H96O6+NH4] 1+) |
| 328 Å² | 327.9 Å² | – | CCCCC/C=C\C/C=C\C/C=C\C/C=C\CCCCCC(=O)OC[C@@H](COC(=O)CCCCCCCCCCCCCCC)OC(=O)CCCCCCC/C=C\C/C=C\CCCCC [TG 16:0_18:2_22:4] (ion (formula + adduct): [C59H102O6+NH4] 1+) |
| 325.3 Å² | – | – | CC/C=C\C/C=C\C/C=C\C/C=C\C/C=C\C/C=C\CCC(=O)OC[C@@H](COC(=O)CCCCCCCCCCCCCCC)OC(=O)CCCCCCC/C=C\C/C=C\CCCCC [TG 16:0_18:2_22:6] (ion (formula + adduct): [C59H98O6+NH4] 1+) |
| 322.1 Å² | – | – | CC/C=C\C/C=C\C/C=C\C/C=C\C/C=C\C/C=C\CCC(=O)OC[C@@H](COC(=O)CCCCCCCCCCCCCCC)OC(=O)CCCC/C=C\C/C=C\C/C=C\C/C=C\CC [TG 16:0_18:4_22:6] (ion (formula + adduct): [C59H94O6+NH4] 1+) |
| 340.8 Å² | 340.7 Å² | 341.2 Å² | CCCCCCCCCCCCCCCCCCCCCC(=O)OC[C@@H](COC(=O)CCCCCCCCCCCCCCC)OC(=O)CCCCCCCCCCCCCCCCCC [TG 16:0_19:0_22:0] (ion (formula + adduct): [C60H116O6+NH4] 1+) |
| – | – | 331.2 Å² | CC/C=C\C/C=C\C/C=C\C/C=C\C/C=C\CCCCCC(=O)OC[C@@H](COC(=O)CCCCCCCCCCCCCCC)OC(=O)CCCCCCC/C=C\CCCCCCCCC [TG 16:0_19:1_22:5] (ion (formula + adduct): [C60H104O6+NH4] 1+) |
| 332.3 Å² | – | – | CCCCC/C=C\C/C=C\C/C=C\C/C=C\CCCC(=O)OC[C@@H](COC(=O)CCCCCCCCCCCCCCC)OC(=O)CCCCCCCCCCCCCCCCCCC [TG 16:0_20:0_20:4] (ion (formula + adduct): [C59H106O6+NH4] 1+) |
| – | – | 339.7 Å² | CCCCCCCCCCCCCCCCCCCCC(=O)OC[C@@H](COC(=O)CCCCCCCCCCCCCCC)OC(=O)CCCCCCCCCCCCCCCCCCC [TG 16:0_20:0_21:0] (ion (formula + adduct): [C60H116O6+NH4] 1+) |
| – | 343.5 Å² | 344.3 Å² | CCCCCCCCCCCCCCCCCCCCCC(=O)OC[C@@H](COC(=O)CCCCCCCCCCCCCCC)OC(=O)CCCCCCCCCCCCCCCCCCC [TG 16:0_20:0_22:0] (ion (formula + adduct): [C61H118O6+NH4] 1+) |
| – | 333.9 Å² | – | CCCCC/C=C\C/C=C\C/C=C\CCCCCCCCC(=O)OC[C@@H](COC(=O)CCCCCCCCCCCCCCC)OC(=O)CCCCCCCCCCCCCCCCCCC [TG 16:0_20:0_22:3] (ion (formula + adduct): [C61H112O6+Na] 1+) |
| 335.3 Å² | – | – | CC/C=C\C/C=C\C/C=C\C/C=C\C/C=C\C/C=C\CCC(=O)OC[C@@H](COC(=O)CCCCCCCCCCCCCCC)OC(=O)CCCCCCCCCCCCCCCCCCC [TG 16:0_20:0_22:6] (ion (formula + adduct): [C61H106O6+NH4] 1+) |
| 329.3 Å² | – | 329.4 Å² | CC/C=C\C/C=C\C/C=C\C/C=C\C/C=C\C/C=C\CCC(=O)OC[C@@H](COC(=O)CCCCCCCCCCCCCCC)OC(=O)CCCCCC/C=C\C/C=C\C/C=C\CCCCC [TG 16:0_20:3_22:6] (ion (formula + adduct): [C61H100O6+NH4] 1+) |
| 338.2 Å² | – | – | CCCCC/C=C\C/C=C\C/C=C\C/C=C\CCCC(=O)O[C@H](COC(=O)CCCCCCCCCCCCCCC)COC(=O)CCCCCCCCCCCCCCCCCCCCC [TG 16:0_20:4_22:0] (ion (formula + adduct): [C61H110O6+NH4] 1+) |
| – | 346 Å² | 346.3 Å² | CCCCCCCCCCCCCCCCCCCCCC(=O)OC[C@@H](COC(=O)CCCCCCCCCCCCCCC)OC(=O)CCCCCCCCCCCCCCCCCCCC [TG 16:0_21:0_22:0] (ion (formula + adduct): [C62H120O6+NH4] 1+) |
| – | 342.3 Å² | – | CCCCC/C=C\C/C=C\CCCCCCCCCCCC(=O)OC[C@@H](COC(=O)CCCCCCCCCCCCCCC)OC(=O)CCCCCCCCCCCCCCCCCCCC [TG 16:0_21:0_22:2] (ion (formula + adduct): [C62H116O6+NH4] 1+) |

| TIMS collisional cross section (sample type: Liver) | TIMS collisional cross section (sample type: plasma) | TIMS collisional cross section (sample type: HeLa) | SMILES |
| --- | --- | --- | --- |
| 340.7 Å² | – | – | CC/C=C\C/C=C\C/C=C\C/C=C\C/C=C\C/C=C\CCC(=O)OC[C@@H](COC(=O)CCCCCCCCCCCCCCC)OC(=O)CCCCCCCCCCCCCCCCCCCCC [TG 16:0_22:0_22:6] (ion (formula + adduct): [C63H110O6+NH4] 1+) |
| – | – | 332.8 Å² | CC/C=C\C/C=C\C/C=C\C/C=C\C/C=C\C/C=C\CCC(=O)OC[C@@H](COC(=O)CCCCCCCCCCCCCCC)OC(=O)CCCCC/C=C\C/C=C\C/C=C\C/C=C\C/C=C\CC [TG 16:0_22:5_22:6] (ion (formula + adduct): [C63H100O6+NH4] 1+) |
| 331.6 Å² | – | – | CC/C=C\C/C=C\C/C=C\C/C=C\C/C=C\C/C=C\CCC(=O)OC[C@@H](COC(=O)CCCCCCCCCCCCCCC)OC(=O)CC/C=C\C/C=C\C/C=C\C/C=C\C/C=C\C/C=C\CC [TG 16:0_22:6_22:6] (ion (formula + adduct): [C63H98O6+NH4] 1+) |
| – | – | 313.4 Å² | CCCCCC/C=C\CCCCCCCC(=O)OC[C@H](COC(=O)CCCCCCC/C=C\CCCCCCCC)OC(=O)CCCCCCC/C=C\CCCCCC [TG 16:1_16:1_18:1] (ion (formula + adduct): [C53H96O6+NH4] 1+) |
| 310.5 Å² | 311.2 Å² | 311.9 Å² | CCCCC/C=C\C/C=C\CCCCCCCC(=O)OC[C@@H](COC(=O)CCCCCCC/C=C\CCCCCC)OC(=O)CCCCCCC/C=C\CCCCCC [TG 16:1_16:1_18:2] (ion (formula + adduct): [C53H94O6+NH4] 1+) |
| 317.3 Å² | – | 318.5 Å² | CC/C=C\C/C=C\C/C=C\C/C=C\C/C=C\C/C=C\CCC(=O)OC[C@@H](COC(=O)CCCCCCC/C=C\CCCCCC)OC(=O)CCCCCCC/C=C\CCCCCC [TG 16:1_16:1_22:6] (ion (formula + adduct): [C57H94O6+NH4] 1+) |
| – | – | 315.7 Å² | CCCCCC/C=C\CCCCCCCC(=O)OC[C@H](COC(=O)CCCCCCC/C=C\CCCCCCC)OC(=O)CCCCCCCCCCCCCCCC [TG 16:1_17:0_17:1] (ion (formula + adduct): [C53H98O6+NH4] 1+) |
| – | – | 320.7 Å² | CCCCCC/C=C\CCCCCCCC(=O)OC[C@H](COC(=O)CCCCCCCCCCCCCCCCC)OC(=O)CCCCCCCCCCCCCCCC [TG 16:1_17:0_18:0] (ion (formula + adduct): [C54H102O6+NH4] 1+) |
| – | – | 314.8 Å² | CCCCCC/C=C\CCCCCCCC(=O)OC[C@H](COC(=O)CCCCCCC/C=C\CCCCCCC)OC(=O)CCCCCCC/C=C\CCCCCCC [TG 16:1_17:1_17:1] (ion (formula + adduct): [C53H96O6+NH4] 1+) |
| – | – | 318.7 Å² | CCCCCC/C=C\CCCCCCCC(=O)OC[C@H](COC(=O)CCCCCCCCCCCCCCCCC)OC(=O)CCCCCCC/C=C\CCCCCCC [TG 16:1_17:1_18:0] (ion (formula + adduct): [C54H100O6+NH4] 1+) |
| – | – | 316.5 Å² | CCCCCC/C=C\CCCCCCCC(=O)OC[C@H](COC(=O)CCCCCCC/C=C\CCCCCCCC)OC(=O)CCCCCCC/C=C\CCCCCCC [TG 16:1_17:1_18:1] (ion (formula + adduct): [C54H98O6+NH4] 1+) |
| 313.9 Å² | 314.6 Å² | 315.1 Å² | CCCCC/C=C\C/C=C\CCCCCCCC(=O)OC[C@@H](COC(=O)CCCCCCC/C=C\CCCCCC)OC(=O)CCCCCCC/C=C\CCCCCCC [TG 16:1_17:1_18:2] (ion (formula + adduct): [C54H96O6+NH4] 1+) |
| – | – | 314.8 Å² | CC/C=C\C/C=C\C/C=C\CCCCCCCC(=O)OC[C@@H](COC(=O)CCCCCCC/C=C\CCCCCC)OC(=O)CCCCCCC/C=C\CCCCCCC [TG 16:1_17:1_18:3] (ion (formula + adduct): [C54H94O6+NH4] 1+) |
| 319.7 Å² | – | 319.7 Å² | CCCCC/C=C\C/C=C\CCCCCCCC(=O)OC[C@@H](COC(=O)CCCCCCC/C=C\CCCCCC)OC(=O)CCCCCCCCCCCCCCCCC [TG 16:1_18:0_18:2] (ion (formula + adduct): [C55H100O6+NH4] 1+) |
| 328.2 Å² | – | – | CCCCCC/C=C\CCCCCCCC(=O)OC[C@H](COC(=O)CCCCCCCCC/C=C\CCCCCCCC)OC(=O)CCCCCCCCCCCCCCCCC [TG 16:1_18:0_20:1] (ion (formula + adduct): [C57H106O6+NH4] 1+) |
| 324.7 Å² | – | – | CCCCC/C=C\C/C=C\C/C=C\C/C=C\CCCC(=O)OC[C@@H](COC(=O)CCCCCCC/C=C\CCCCCC)OC(=O)CCCCCCCCCCCCCCCCC [TG 16:1_18:0_20:4] (ion (formula + adduct): [C57H100O6+NH4] 1+) |
